Experimental data from article PMC5445237 (CPT: Pharmacometrics & Systems Pharmacology, 2017).
Like-named read-outs stand apart in the source and are kept apart here.

How the values were obtained:
[1] = cited from earlier work; for increase in apixaban exposure: phase I study, regression analysis
[2] = Exploratory exposure-response evaluation for bleeding and efficacy endpoints; assay type: in vivo, human
[3] = cited from earlier work
[4] = Population pharmacokinetic analysis of apixaban; assay type: in vivo, human; settings: for CL renal: male, human, plasma, oral
[5] = Simulation of apixaban steady-state exposure in VTE treatment population; set-up: species or system human
[6] = system: cytochrome P450 3A4 (CYP3A4); settings: minor contributions from CYP1A2, 2C8, 2C9, 2C19, 2J2; cited from earlier work
[7] = among 522 subjects from the acute VTE treatment studies

COc1ccc(-n2nc(C(N)=O)c3c2C(=O)N(c2ccc(N4CCCCC4=O)cc2)CC3)cc1 [apixaban, Apixaban]
half-life [1]: ~12 h
lower CL/F, NVAF subjects compared to phase I subjects [1]: 14%
oral bioavailability [1]: ~50%
renal clearance as share of total systemic clearance [1]: ~27%
volume of distribution from phase I studies [1]: ~21 L
decrease in exposure after coadministration with rifampin ([1]; healthy subjects, strong inducer of CYP3A4 and P-gp): 50%
increase in exposure after coadministration with ketoconazole ([1]; healthy subjects, strong inhibitor of CYP3A4 and P-gp): 2 fold
predicted median daily AUCss in NVAF subjects ([1]; nonvalvular atrial fibrillation subjects, 5 mg b.i.d.): 3,280 ng*hr/mL
exposure higher following coadministration with ketoconazole than apixaban alone ([1]; phase I clinical studies): ~100%
higher AUC, females compared to males ([1]; phase I studies): 15%
higher AUC, older subjects (>=65 years) compared to younger subjects (18-40 years) ([1]; phase I studies): 32%
increase in apixaban exposure ([1]; mild renal impairment): ~16%
increase in apixaban exposure ([1]; moderate renal impairment): ~29%
increase in apixaban exposure ([1]; severe renal impairment): ~44%
bleeding events (major or clinically relevant nonmajor) ([2]; among 178 subjects from the AMPLIFY-EXT study): eight
VTE/VTE-related death events [2, 7]: five
bleeding events (major or clinically relevant nonmajor) [2, 7]: 25
adjudicated major bleeding (primary safety endpoint) vs enoxaparin/warfarin ([3]; AMPLIFY study): statistically superior
number of major bleeding events, apixaban and placebo groups ([3]; AMPLIFY-EXT): low and similar
reduction in Vc/F vs 85 kg reference subject ([4]; 50-kg subject): 24%
increase in Vc/F vs 85 kg reference subject ([4]; 120-kg subject): 20%
impact on apixaban exposure ([4]; age, sex, Asian race (also strong or moderate CYP3A4/P-gp inhibitors)): less than 25%
increase in AUC expected in severe renal impairment ([4]; expected from 27% renal contribution, renal clearance close to zero): ~40%
Asian subjects effect on CL/F (covariate parameter, fractional change) ([4]; final model): −0.168
Female effect on CLNR/F (covariate parameter, fractional change) ([4]; final model): −0.223
IIV (interindividual variability, CV%) of CL/F ([4]; final model): 33.1%
IIV (interindividual variability, CV%) of ka ([4]; final model): 50.2%
Q/F (apparent intercompartmental clearance) ([4]; final model): 1.62 L/h
Vp/F (apparent volume of peripheral compartment) ([4]; final model): 19.8 L
Vc/F (apparent volume of central compartment) ([4]; final model, reference VTE treatment subject): 32.1 L
ka, an evening dose ([4]; final population PK model, evening dose): 0.239 h⁻¹
ka ([4]; final population PK model, morning or afternoon dose): 0.440 h⁻¹
CL renal ([4]; CLNR/F (apparent nonrenal clearance), final model, reference VTE treatment subject): 42 mL/min
CL renal ([4]; CLR/F (apparent renal clearance), final model, reference VTE treatment subject (60 years, non-Asian male, 85 kg, cCrCL 100 mL/min)): 30.5 mL/min
lower daily AUC vs 60-year-old reference subject ([4]; predicted, 40-year-old male, no change in apparent renal clearance): ~6%
higher daily AUC vs 60-year-old reference subject ([4]; predicted, 80-year-old male, no change in apparent renal clearance): 5%
higher AUC compared to non-Asian subjects ([4]; predicted, Asian subjects): 20%
higher AUC than male subjects ([4]; predicted, female subjects): ~15%
higher AUC than reference subject with normal renal function ([4]; predicted, mild renal impairment (cCrCL of 65 mL/min)): ~17%
higher AUC (exposure) than reference subject ([4]; predicted, severe renal impairment (cCrCL of 15 mL/min)): 56%
decrease in CL/F ([4]; severe renal impairment): 36%
predicted median daily AUCss lower than in NVAF subjects ([5]; 5-mg b.i.d., VTE treatment population vs NVAF subjects): about 25%
fluctuation between peak and trough concentrations ([5]; predicted, VTE treatment subjects): ~2 fold
metabolism by CYP3A4 [6]: predominantly metabolized
